Read-outs that look alike come from different tables or passages of the source.
How the values were obtained:
NS3h_2a(JFH1) = target: T1, NS3h_2a(JFH1) (Hepatitis C virus genotype 2a, UniProt Q99IB8); assay: MBHA, DNA substrate, genotype 2a helicase; type: biochemical, hepatitis C virus genotype 2a(JFH1)
T1 construct: truncated C-terminally His-tagged NS3 proteins lacking the N-terminal protease, called NS3h; His-tag (C); made in house
Procedure: All oligonucleotides were purchased from Integrated DNA Technologies (IDT, Coralville, Iowa). Primuline derivatives were synthesized and purified as described herein. Three different NS3 proteins were used in this study. Two were truncated C-terminally His-tagged NS3 proteins lacking the N-terminal protease, called NS3h, the third was a full-length NS3 with the portion of NS4A needed for protease activation fused to its N-terminus, called scNS4A-NS3 (Howe, et al. (1999) Protein Sci. 8:1332-41), and the fourth was a 23 kDa scNS4A-NS3 protease fragment lacking the helicase domains, called scNS4A-NS3p (Protein One, Rockville, Md.). NS3h was expressed from two different HCV strains. NS3h_1b(con1) was from the con1 strain of genotype 1b (GENBANK accession AB114136), and NS3h_2a(JFH1) was from the JFH1 strain of HCV genotype 2a (GENBANK accession AJ238799). […] His-tagged recombinant NS3h_1b(con1), NS3h_2a(JFH1), and scNS4A-NS3 (also from genotype 1b(con1)) were expressed, and purified as previously described (Frick, et al. (2010) supra; Lam, et al. (2003) J. Virol. 77:3950-3961). The scNS4A-NS3p (genotype 1b) was from Protein One. A plasmid expressing NS3h from dengue virus strain 2 (NS3h_DV2)(GENBANK accession 2BMF) is known in the art (Xu, et al. (2005) J. Virol. 79:10278-10288), and used to express and purify NS3h_DV2 (Belon, et al. (2010) supra)
Compounds that specifically target less conserved regions of a HCV protein are often not potent inhibitors of the same protein derived from other genotypes, and they might be susceptible to rapid evolution of related viruses. As described herein, primuline derivatives can inhibit HCV helicase isolated from the genotype 1b(con1) strain. Therefore to further analyze specificity, the subset of primuline analogs was tested on the helicase isolated from the genotype 2a(JFH1) strain. The two recombinant proteins differ at 83 of their 480 amino acids. The JHF1 strain is also of interest because it serves as the backbone for HCV strains capable of replicating in cell culture (Wakita, et al. (2005) Nat. Med. 11:791-796). The molecular beacon-based helicase assay (MBHA) (Belon & Frick (2008) supra) was used to measure the ability of each compound to inhibit DNA unwinding catalyzed by NS3h isolated from genotype 2a(JFH1) (NS3h_2a(JFH1)). […] Selected compounds were also tested for the ability to inhibit helicase reactions catalyzed by full-length NS3 and a single chain NS4A-NS3 protein (scNS4A-NS3) described below and used for protease assays.

Huh-7.5 cells = assay: Cell viability assay ([…]-GLO); type: cell-based, human; details: for Cell viability (% viable): 10 μM compound, triplicate, average ± SD
Procedure: To assess compound toxicity toward Huh-7.5 cells, cells were plated and treated as above and cell viability was assessed using the […]-GLO luminescent cell viability kit (PROMEGA) following the manufacturer's instructions. Briefly, at the end of a 72 hour incubation period, the medium was aspirated and the cells were washed with 1×PBS, then an equal volume of growth medium and […]-GLO reagent was added and the lysis was initiated by mixing on an orbital shaker. The plate was incubated at 23° C. for 30 minutes and the luciferase activity was measured for 1 second using the FLUOSTAR Omega microplate reader (BMG Labtech).

[1] = target: T2, HCV NS3 helicase NS3h_1b(con1) (Hepatitis C virus genotype 1b, UniProt Q9WMX2); assay: biochemical; type: biochemical, hepatitis C virus genotype 1b(con1)
T2 construct: truncated C-terminally His-tagged NS3 proteins lacking the N-terminal protease, called NS3h; His-tag (C); made in house
Summary of the method: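 Molecular beacon helicase assay with His-tagged recombinant NS3 and a Cy5/IBRQ-labelled partially duplex DNA substrate (25 bp) or Tye665-labelled RNA substrate (19 bp). Reactions started with 1 mM ATP. Screening read fluorescence before and 30 min after ATP (ex 643/em 670 nm). For IC50, 5% v/v DMSO was present, initial velocities came from first-order decay fits, and a Hill equation was applied.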

[2] = DNA-based MBHA, genotype 2a(JFH1), read-out: DNA Helicase NS3h_2a IC50 (μM) ± SD
[3] = genotype 2a (JFH1), read-out: Target Potency MBHA (IC50 avg., μM) 2a (JFH1) (converted)
[4] = DNA-based MBHA, genotype 1b, read-out: DNA Helicase NS3h_1b IC50 (μM) ± SD
[5] = MBHA, DNA unwinding, mean ± SD of three titrations, read-out: Helicase IC50
[6] = genotype 1b (con1), read-out: Target Potency MBHA (IC50 avg., μM) 1b (con1)
[7] = standard HCV helicase MBHA (Table 9), read-out: DNA Unwinding IC50

T2 sequence (Q9WMX2 1192-1657): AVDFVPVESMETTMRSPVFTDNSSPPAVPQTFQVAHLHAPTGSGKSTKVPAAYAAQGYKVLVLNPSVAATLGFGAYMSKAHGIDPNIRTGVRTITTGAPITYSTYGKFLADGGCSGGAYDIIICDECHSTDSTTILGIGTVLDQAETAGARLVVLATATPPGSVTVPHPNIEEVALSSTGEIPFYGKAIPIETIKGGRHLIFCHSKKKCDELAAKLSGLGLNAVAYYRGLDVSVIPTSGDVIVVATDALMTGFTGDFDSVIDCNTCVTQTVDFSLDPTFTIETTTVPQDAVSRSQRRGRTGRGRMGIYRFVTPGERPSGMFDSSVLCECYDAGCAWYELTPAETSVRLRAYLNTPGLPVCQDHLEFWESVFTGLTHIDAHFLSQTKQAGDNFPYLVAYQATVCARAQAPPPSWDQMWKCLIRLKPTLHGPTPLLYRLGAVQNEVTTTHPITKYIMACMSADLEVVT
T1 sequence (Q99IB8 1196-1661): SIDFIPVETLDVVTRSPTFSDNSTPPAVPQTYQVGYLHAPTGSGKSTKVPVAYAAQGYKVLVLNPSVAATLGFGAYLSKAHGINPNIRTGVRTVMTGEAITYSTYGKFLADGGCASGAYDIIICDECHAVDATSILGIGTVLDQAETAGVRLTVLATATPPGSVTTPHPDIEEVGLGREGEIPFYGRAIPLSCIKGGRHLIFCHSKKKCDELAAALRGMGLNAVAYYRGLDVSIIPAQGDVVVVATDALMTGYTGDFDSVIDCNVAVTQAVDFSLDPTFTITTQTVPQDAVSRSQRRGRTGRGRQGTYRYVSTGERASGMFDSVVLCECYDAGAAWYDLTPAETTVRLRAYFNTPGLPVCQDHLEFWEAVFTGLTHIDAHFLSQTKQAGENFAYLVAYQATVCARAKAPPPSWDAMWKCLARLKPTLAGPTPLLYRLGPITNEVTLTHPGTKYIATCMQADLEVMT

SMILES | IC50 (NS3h_2a(JFH1); [2]) | IC50 (NS3h_2a(JFH1); [3]) | Cell Viability (% @ 10 μM) (Huh-7.5 cells) | Cell viability (% viable) (Huh-7.5 cells) | IC50 [1, 4] | IC50 [1, 5] | IC50 [1, 6] | IC50 [1, 7]
Cc1ccc2nc(-c3ccc4nc(-c5ccc(NC(=O)c6ccc(C(F)(F)F)cc6)cc5)sc4c3)sc2c1S(=O)(=O)O [Compound 12, 6-methyl-2′-(4-(4-(trifluoromethyl)benzamido)phenyl)-[2,6′-bibenzo[d]thiazole]-7-sulfonic acid] | 2 ± 1 µM | 2.5 ± 1 µM | 90 ± 4% | 90 ± 4% | 2 ± 0.4 µM | 1.8 ± 0.4 µM | 1.8 ± 0.4 µM | 2 µM
Cc1ccc2nc(-c3ccc(NC(=O)c4ccc(NC(=O)Nc5ccccc5)cc4)cc3)sc2c1S(=O)(=O)O.N [Compound 45] |  | 32 µM | 113 ± 4% |  |  |  | 44 ± 12 µM | 44 ± 12 µM
Cc1ccc2nc(-c3ccc4nc(-c5ccc(NC(=O)c6cccc7ccccc67)cc5)sc4c3)sc2c1S(=O)(=O)O.N [Compound 49] |  | 3.9 µM | 103 ± 5% |  |  |  | 4.5 ± 0.4 µM | 5 µM
COc1ccc(S(=O)(=O)Nc2ccc(-c3nc4ccc(-c5nc6ccc(C)c(S(=O)(=O)O)c6s5)cc4s3)cc2)cc1 [Compound 29, 2′-(4-(4-methoxyphenylsulfonamido)phenyl)-6-methyl-[2,6′-bibenzo[d]thiazole]-7-sulfonic acid] |  | 13.4 µM | 75 ± 3% | 75 ± 3% |  | 24 ± 2.2 µM | 24.4 ± 2.2 µM | 24 ± 2 µM
Cc1ccc2nc(-c3ccc4nc(-c5ccc(NC(=O)c6ccc(F)cc6)cc5)sc4c3)sc2c1S(=O)(=O)O.N [Compound 7, 2′-(4-(4-fluorobenzamido)phenyl)-6-methyl-[2, bibenzo[d]thiazole]-7-sulfonic acid] | 3 ± 0.8 µM | 3 ± 0.8 µM | 94 ± 2% | 94 ± 2% | 5 ± 0.6 µM | 5.2 ± 0.6 µM | 5.2 ± 0.6 µM | 5 ± 1 µM
Cc1ccc2nc(-c3ccc(NC(=O)c4ccc(NC(=O)OCC5c6ccccc6-c6ccccc65)cc4)cc3)sc2c1S(=O)(=O)O.N [Compound 42] |  | 12 µM | 108 ± 2% |  |  |  | 12 ± 3.7 µM | 12 ± 4 µM
Cc1ccc2nc(-c3ccc(NC(=O)c4ccc(NS(=O)(=O)c5ccccc5)cc4)cc3)sc2c1S(=O)(=O)O |  | > 100 µM | 119 ± 11% |  |  |  | > 100 µM | 
Cc1ccc2nc(-c3ccc4nc(-c5ccc(NC(=O)c6ccc(C(F)(F)F)c(F)c6)cc5)sc4c3)sc2c1S(=O)(=O)O [Compound 23, 2′-(4-(3-fluoro-4-(trifluoromethyl)benzamido)phenyl)-6-methyl-[2,6′-bibenzo[d]thiazole]-7-sulfonic acid] |  | 13 ± 2 µM | 129 ± 2% | 129 ± 2% |  | 17 ± 17 µM | 17.4 ± 17 µM | 17 ± 17 µM
Cc1ccc2nc(-c3ccc4nc(-c5ccc(NC(=O)c6ccc(C(C)(C)C)cc6)cc5)sc4c3)sc2c1S(=O)(=O)O [Compound 13, 2′-(4-(4-(tert-butyl)benzamido)phenyl)-6-methyl-[2,6′-bibenzo[d]thiazole]-7-sulfonic acid] | 5 ± 0.7 µM | 5 ± 0.7 µM | 87 ± 4% | 87 ± 4% | 8 ± 1 µM | 8.2 ± 1 µM | 8.2 ± 1 µM | 8 ± 1 µM

From patent publication US9464064B2, “HCV helicase inhibitors and methods of use thereof” (University of Kansas, priority 2011, dated 2016)
